Key:
[1] = Apigenin solubility in NaOH solutions; type: physicochemical; settings: sodium hydroxide solution, aqueous buffer
From the text: A good solubility of polyphenols in the alkaline medium is very important in generating well hydrated polyphenols upon acidification. The regenerated hydrated products mix well in the formulations. Sodium hydroxide solution is an effective solubilizer at different concentrations for apigenin, a polyphenol flavonoid. This is exemplified in the table below— Apigenin Solubility in NaOH Solutions [table]

[2] = tested on: acute radiation dermatitis; settings: 49 patients; prophylactic MMF with emollient cream vs emollient cream alone; cited from earlier work
[3] = SEM particle morphology of hydrated apigenin; type: physicochemical
From the text: Scanning Electron Microscopy (SEM) images of the hydrated apigenin, and unprocessed apigenin powder were collected to determine particle morphology details. […] The chemical composition as determined by FTIR and Raman Spectroscopy, could not detect any chemical differences in the unprocessed apigenin and the hydrated apigenin. […] The hydrated apigenin was composed of fibers with diameters of 30-500 nm (a range of being nano-fibers) with aspect ratios measuring greater than 20.

`O=c1cc(-c2ccc(O)cc2)oc2cc(O)cc(O)c12` [Apigenin] showed a solubility ([1]; NaOH Molarity 0.75 moles/liter) of over 150 mg/mL, a solubility ([1]; NaOH Molarity 1.015 moles/liter) of over 200 mg/mL and a solubility ([1]; NaOH Molarity 2.0 moles/liter) of over 300 mg/mL.
For `C[C@@H]1C[C@H]2[C@@H]3CCC4=CC(=O)C=C[C@]4(C)[C@@]3(Cl)[C@@H](O)C[C@]2(C)[C@@]1(OC(=O)c1ccco1)C(=O)CCl` [MMF, mometasone furoate], the acute radiation dermatitis [2] is listed as “significantly decreased acute radiation dermatitis”.
With `O=c1cc(-c2ccc(O)cc2)oc2cc(O)cc(O)c12` [hydrated apigenin] the “aspect ratios of fibers” value [3] was “greater than 20” and the fiber diameters [3] was 30-500 nm.

— patent publication US20210369667A1, “COMPOSITIONS AND METHODS FOR THE PREVENTION AND TREATMENT OF RADIATION DERMATITIS, ECZEMA, BURNS, WOUNDS AND CERTAIN CANCERS” (VIZURI HEALTH SCIENCES CONSUMER HEALTHCARE, INC., priority 2019, published 2021)
